Tests used:
[1] = Thermal stability of Lipoic Acid inside UHMWPE, by FTIR spectra; format: physicochemical; conditions: UHMWPE with 0.5% wt lipoic acid heated at 150° C. for 2 hours or 200° C. for 24 hours
Method: UHMWPE GUR 1050 (Ticona Inc, Bayport, Tex., USA) in powder form was mixed with 0.5 weight % of Lipoic Acid in powder form (Talamonti, Italy, stock n. 1050919074). The mixture was then moulded in a cell at 160° C. and at a pressure of 200 MPa. The purpose of these examples was to investigate the presence and stability of Lipoic Acid inside UHMWPE with which it was pre-mixed. UHMWPE commonly melts at 138° C., but Lipoic Acid melts at about 65° C. Therefore, to check the Lipoic Acid stability into the UHMWPE at high temperatures a Lipoic Acid-doped UHMWPE was tested at 150° C. and 200° C. […] Line B represents the spectrum of UHMWPE doped with LA, heated at 150° C. for 2 hours, then cooled at room temperature, in which the spectrum of pure UHMWPE was detracted as baseline.

[2] = Oxidation stability after gamma irradiation and aging, by FTIR oxidation index; format: physicochemical; conditions: 0.5 weight % in UHMWPE
Method: UHMWPE GUR 1050 (Ticona Inc, Bayport, Tex., USA) in powder form was mixed with 0.5 weight % of Lipoic Acid in powder form (Talamonti, Italy, stock n. 1050919074). The mixture was then moulded in a cell at 160° C. and at a pressure of 200 MPa.
A comparative sample was made with the same UHMWPE GUR 1050 only, namely without mixing it with lipoic acid.
Each sample of UHMWPE, virgin and doped with lipoic acid, was gamma irradiated to a dose of 30 kGy (Isomedix, Northborough, Mass.), then was processed into cylindrical pins of 20 mm length and 9 mm diameter.
Each sample, virgin and doped, was then aged at 80° C. in a convection oven for 5 weeks, in air (ASTM standard F2003-02). After aging and oxidation, thin sections of […] thickness of each sample were prepared using a Leitz Wetzlar Sledge Microtome (Leica, Nussloch, Germany). The irradiated and aged sections of cylindrical pins samples were then analysed by means of Fourier Transform Infrared Spectroscopy (FTIR). The IR analysis was performed using a Nicolet Magna 860 spectrometer.
The effect of aging on the oxidation of virgin UHMWPE and UHMWPE doped with lipoic acid is shown in FIG. 2 and FIG. 3, respectively. An oxidation index OI was defined as the ratio of the area under 1740 cm^−1 carbonyl and 1370 cm^−1 methylene absorbance peaks.

[3] = cited from earlier work

O=C(O)CCCCC1CCSS1 (centres unmarked) [Lipoic Acid, Lipoic acid]
stability of Lipoic Acid (FTIR spectrum) [1]: substantially unchanged | stability of Lipoic Acid (FTIR spectrum) ([1]; listed as lipoic acid): stable | antioxidant effectiveness in UHMWPE [2]: effective as antioxidant | toxicity on human beings ([3]; 100 to 600 mg/day for 3 to 6 months): low toxicity | side effects ([3]; dose of 50 mg/day): no side effect reported

— patent US7989518B2, “Synthetic biocompatible material having an improved oxidation resistance, process for preparing the same and prosthetic articles obtained therefrom” (priority 2006, dated 2011)
